Data taken from patent US8894993B2, “Mitochondria-targeted antioxidants” (Natreon Inc., priority 2006, dated 2014).
One block for each compound: values may come before it.

Experiments:
[1] = DBP products in mice liver mitochondria before and after DBPs treatment, HPTLC; format: in vivo, Swiss Albino mice; details: one hour after i.p. 4:1 mixture of 3,8-(OH)2-DBP and 3-OH-DBP 20 mg/Kg
Protocol: Mitochondria were isolated from heart and liver of chicken, goat and mice following a published procedure (Liu Y, Deng F, Zhao R and Qu S, Chemosphere, 40(8):851-854, 2000). […] The tissue was cut into small pieces, homogenized and centrifuged at 900 g for one minute. The supernatant was again centrifuged twice, for 20 minutes each time at 900 g. The sediment at each step was discarded. The clear supernatant was centrifuged twice at 12,000 g, 20 minutes each time, to form pellets of a mitochondria-enriched fraction. The fraction was divided into two parts. One part was resuspended in a measured volume of distilled water and sonicated (10 min×2). […] The two extracts were subjected to comprehensive HPTLC and HPLC analyses for detection and quantitation of DBPs and their equivalents. […] One hour after administration the animals were sacrificed and mitochondria from liver were isolated and analyzed as described for Example 6. […] Mobile Phase—Chloroform:Methanol 90:10 Sample application—CAMAG LINOMAT 5 (Automated applicator) Detection—240 nm (CAMAG TLC SCANNER 3) 3-OH-DBP and 3,8-(OH)2-DBP (and their conjugates) were detected in mitochondria of control mice by HPTLC. Administration of DBPs to the animals increased the amount of DBPs and its products in mitochondria as detected by using authentic markers of the two DBPs (Table 2).

[2] = Stability of reduced CoQ10 (CoQH2) by 3,8-(OH)2-DBP at different pH, HPLC; format: physicochemical
[3] = as above; format: physicochemical; details: for Reduced CoQ10 remaining in control: no DBP
Protocol: Two mg of solid CoQ10 (SRL, India), in an airtight vial was dissolved in 1 ml of methanol. After thorough vortexing, 5 mg of solid NaBH4 (Merck India) was added, 1 mg at a time, to the yellow colored solution of CoQ10 in methanol and kept in an ice-bath for a few minutes. The vial was kept shut to avoid contact with air but opened occasionally to avoid generation of pressure inside due to accumulation of hydrogen. After the reduction reaction, a clear colorless solution was obtained to which methanolic solution of 3,8-(OH)2-DBP with a concentration of 1 mg/ml (>90% pure) was added in a ratio of 1:1 to obtain a final concentration of the mixture—reduced CoQ10 […] DBP 0.5 mg/ml. This solution was analyzed by HPLC for reduced CoQ10 content at different time intervals. A control was prepared in similar fashion except that no DBP was added. The pH of the solutions was determined to be 8 using pH paper. To obtain solutions of reduced CoQ10 with pH 7 and pH 3, aliquots of concentrated HCl were added to the methanolic solution of reduced CoQ10 at pH 8. Afterwards, a solution of DBP was added and analysis by HPLC at different time intervals was conducted, as before.
(§1) Mobile phase—Methanol:Acetonitrile:Ethanol 30:30:40
Detection—PDA 290 nm for reduced CoQ10

[4] = Inhibition of CoQ-CoQH2 aberrant metabolite formation during red-ox recycling, HPLC; format: physicochemical; details: in vitro
Protocol: Methanolic solution of coenzyme Q10 (1 mg/ml) was reduced by NaBH4 to pH 8 when the yellow solution became colorless. About 1 mg of 3,8-(OH)2-DBP was added to the solution and the mixture was analyzed by HPLC at different time intervals (0-80 min). A control CoQ10, without 3,8-(OH)2-DBP, was prepared similarly and analyzed at different time intervals (0-80 min).
Column—NovaPak RP C18 [250×4 mm]
as §1
(§2) Detection—PDA 275 nm for CoQ10
Reduced CoQ10 (CoQH2) has a tendency to rapidly autoxidize in the presence of air. […] The aberrant metabolites increased rapidly with time (Table 10).

[5] = tested on: stress-induced lipid peroxidation of mouse brain; assay: Stress-induced lipid peroxidation of mouse brain (thiobarbituric acid reaction); format: in vivo, Swiss albino mice; details: oral each 5 mg/Kg b.w. per day for 5 days, hypoxic stress, control 1.169
Protocol: (§3) Swiss albino mice (20±g) were fed orally with—(a) 3,8-(OH)2-DBP; (b) CoQ10; (c) a combination of 3,8-(OH)2-DBP and CoQ10 and (d) 3,8-(OH)2-DBP and CoQ10 in a clathrated form with fusoms (each 5 mg/Kg b.w.), per day, for 5 days. The animals were subjected to hypoxic stress for 1 hour each day for 3 days from the 3rd day of the experiment. After the stipulated time-period, brain and liver of the animals were collected and mitochondria from the liver were separated as described previously (Liu Y, Deng F, Zhao R and Qu S, Chemosphere, 40(8):851-854, 2000). Lipid peroxidation in brain and liver-mitochondria was estimated by the method of Ohkawa et al. (Ohkawa H, Ohishi N and Yagi K, Assay for lipid peroxides in animal tissues by thiobarbituric acid reaction. Anal. Biochem., 95:351-358, 1979).

[6] = Coenzyme Q in mice blood plasma and organs after oral feeding, HPLC; format: in vivo, Swiss albino mice; details: oral each 5 mg/Kg b.w. per day for 5 days
Protocol: One year old caged stressed Sprague-Dawley rats (250-270 gms) were fed the following, individually or in combination after suspension in 0.8% carboxymethyl cellulose: CoQ10 (5 mg/Kg b.w./day) and 3,8-(OH)2-DBP (5 mg/Kg b.w./day) for 5 days. Blood was collected by puncture of the retro-orbital plexus. The plasma was separated by centrifugation, extracted with methanol and subjected to HPLC. In another experiment, Swiss albino mice (20±2 g) were fed orally with—(a) 3,8-(OH)2-DBP; (b) CoQ10; (c) a combination of 3,8-(OH)2-DBP and CoQ10 and (d) 3,8-(OH)2-DBP and CoQ10 in a clathrated form with Shilajit-fusoms (each 5 mg/Kg b.w.), per day, for 5 days. The animals were subjected to hypoxic stress for 1 hour each day for 3 days from the 3rd day of the experiment. After the stipulated time-period, the content of CoQ10 and their conjugates with DBP were estimated in heart, kidney, liver (in wet weight basis) and in blood, by HPLC, after proper extraction from the tissues according to the procedure depicted in the literature (Rousseau, G and Varin, F, Determination of Ubiquinone-9 and 10 levels in rat tissues and blood by High Performance Liquid Chromatography with Ultraviolet detection. J. Chromat. Sci., 36(5): 247-252, 1998).
Column—RP C18 Xterra [250×4 mm]
as §1, §2
Bioavailability was more when CoQ10 and 3,8-(OH)2-DBP using the fulvic acid system. A systemic increment of CoQ10 was also observed in mice blood plasma and a few organs upon oral feeding of this formulation. The extent of the increment of CoQ10 was more when CoQ10 and 3,8-(OH)2-DBP were targeted to mitochondria using the fulvic acid delivery system (Table 5). A similar trend in the increment was also observed in the case of CoQ10-DBP conjugates when the fulvic acid system was used. […] Thus, concurrent supplementation of CoQ10 and 3,8-(OH)2-DBP [or 3-OH-DBP, which is systemically converted into 3,8-(OH)2-DBP] using a fulvic acid delivery system would efficiently perform their targeting to mitochondria. This can be regarded as effective therapeutic strategy against stress-induced oxidative damage of cells and DNA damage due to old-age.

[7] = tested on: stress-induced lipid peroxidation of mouse liver mitochondria; assay: Stress-induced lipid peroxidation of mouse liver mitochondria (thiobarbituric acid reaction); format: in vivo, Swiss albino mice; details: oral each 5 mg/Kg b.w. per day for 5 days, hypoxic stress, control 0.495
Protocol: as §3

Compound: O=c1oc2cc(O)ccc2c2cc(-c3cc4c(cc3O)c(=O)oc3cc(O)ccc34)c(O)cc12 [3,8-(OH)2-DBP-dimer, 3,3′,8,8′-tetrahydroxy-9,9′-bis-dibenzo-α-pyrone]
Amount in mitochondria after DBP treatment [1]: 28.6 nmol/gm wet wt

Reduced CoQ10 remaining in control ([3]; pH 3, 0 hour): 100.00% | Reduced CoQ10 remaining in control ([3]; pH 3, 48 hour): 57.25% | Reduced CoQ10 remaining in control ([3]; pH 3, 72 hour): 61.95% | Reduced CoQ10 remaining in control ([3]; pH 7, 0 hour): 100.00% | Reduced CoQ10 remaining in control ([3]; pH 7, 48 hour): 7.73% | Reduced CoQ10 remaining in control ([3]; pH 7, 72 hour): 3.70% | Reduced CoQ10 remaining in control ([3]; pH 8, 0 min, methanol): 100.00% | Reduced CoQ10 remaining in control ([3]; pH 8, 40 min, methanol): 79.18% | Reduced CoQ10 remaining in control ([3]; pH 8, 60 min, methanol): 54.09% | Reduced CoQ10 remaining in control ([3]; pH 8, 80 min, methanol): 33.17% | Reduced CoQ10 remaining in control ([3]; pH 8, 100 min, methanol): 20.87% | Relative percentage of aberrant metabolites in absence of 3,8-(OH)2-DBP ([4]; pH 8, 0 minutes): 0% | Relative percentage of aberrant metabolites in absence of 3,8-(OH)2-DBP ([4]; pH 8, 40 minutes): 93% | Relative percentage of aberrant metabolites in absence of 3,8-(OH)2-DBP ([4]; pH 8, 80 minutes): 96%
Compound: COc1c(O)c(C)c(C/C=C(\C)CC/C=C(\C)CC/C=C(\C)CC/C=C(\C)CC/C=C(\C)CC/C=C(\C)CC/C=C(\C)CC/C=C(\C)CC/C=C(\C)CCC=C(C)C)c(O)c1OC [Reduced CoQ10, reference compound]
Regenerated CoQ10 in absence of 3,8-(OH)2-DBP ([2]; autoxidation of CoQH2, pH 8, 20 min): 5.49 µg/mL | Regenerated CoQ10 in absence of 3,8-(OH)2-DBP ([2]; autoxidation of CoQH2, pH 8, 40 min): 72.98 µg/mL | Regenerated CoQ10 in absence of 3,8-(OH)2-DBP ([3]; autoxidation of CoQH2, pH 8, 0 min): 0 µg/mL | Regenerated CoQ10 in absence of 3,8-(OH)2-DBP ([3]; autoxidation of CoQH2, pH 8, 60 min): 184.68 µg/mL | Regenerated CoQ10 in absence of 3,8-(OH)2-DBP ([3]; autoxidation of CoQH2, pH 8, 80 min): 202.28 µg/mL | Regenerated CoQ10 in absence of 3,8-(OH)2-DBP ([3]; autoxidation of CoQH2, pH 8, 100 min): 109.23 µg/mL

concentration at 5 days ([6]; Swiss albino, mouse, blood): 810 nM | Coenzyme Q: Heart ([6]; wet weight): 35.69 nmol/gm | Coenzyme Q: Kidney ([6]; wet weight): 16.51 nmol/gm | Coenzyme Q: Liver ([6]; wet weight): 19.41 nmol/gm
Compound: COC1=C(OC)C(=O)C(C/C=C(\C)CC/C=C(\C)CC/C=C(\C)CC/C=C(\C)CC/C=C(\C)CC/C=C(\C)CC/C=C(\C)CC/C=C(\C)CC/C=C(\C)CCC=C(C)C)=C(C)C1=O [CoQ10]
OD Values at 532 nm (lipid peroxidation) [5]: 1.147 | OD Values at 532 nm (lipid peroxidation) [7]: 0.467
